Measured values published in EP0979243B1, “ACTIVATION OF PEPTIDES” (Anmat Technology Limited, priority 1997, dated 2006).

Format: biochemical
Experimental: As an example of particulates for use in drug-delivery or diagnostic assay,liposomes encapsulating Calcein (Sigma) dye were prepared by the extrusion method of Biochim. Biophys. Acta (1985) 812; 55. Specifically, Phosphotidylcholine (12mg) and cholesterol (2mg) were evaporated to form a lipid film in a round bottom flask. The film was hydrated with 2ml of 120mM Calcein in 10mM sodium phosphate/120mM Sodium chloride buffer of pH 7.4. Liposomes were then prepared by ten times extrusion through a 0.2 micron polycarbonate filter using the reported method. Any non-encapsulated dye was removed by gel filtration on a PD-10 column.
In a typical assay a 2ml buffer containing a known concentration (depending on the activity) of a peptide prepared as in Example 1 is treated with 3µl liposomes prepared as in Example 2. The progress of dye leakage from the liposomes indicates release of the marker and is followed by recording an increase in fluorescence signal. The assay can be repeated in the presence of a binder. Where Calcein is used as the dye excitation and emission wavelengths of 490nm and 520nm were used. […]. The concentration of binder required to fully bind the peptide can be evaluated using series of binder concentration at fixed peptide concentrations or vice versa. […]

## CC[C@H](C)[C@H](NC(=O)CNC(C)=O)C(=O)NCC(=O)N[C@@H](C)C(=O)N[C@H](C(=O)N[C@@H](CC(C)C)C(=O)N[C@@H](CCCNC(=N)N)C(=O)N[C@H](C(=O)N[C@@H](CC(C)C)C(=O)N[C@H](C(=O)N[C@H](C(=O)NCC(=O)N[C@@H](CCCCNC(=O)CCCC[C@@H]1SC[C@@H]2NC(=O)N[C@@H]21)C(=O)N1CCC[C@H]1C(=O)N[C@@H](C)C(=O)N[C@@H](CC(C)C)C(=O)N[C@H](C(=O)N[C@@H](CO)C(=O)N[C@@H](Cc1c[nH]c2ccccc12)C(=O)N[C@H](C(=O)N[C@@H](CCCNC(=N)N)C(=O)N[C@@H](CCCNC(=N)N)C(=O)N[C@@H](CCCNC(=N)N)C(=O)N[C@@H](CCCNC(=N)N)C(=O)N[C@@H](CCC(N)=O)C(=O)N[C@@H](CCC(N)=O)C(N)=O)[C@@H](C)CC)[C@@H](C)CC)[C@@H](C)O)[C@@H](C)O)C(C)C)C(C)C [biotin modified peptide of example 1b]
Figure 4A, under 2hrs, avidin and liposomes in 2ml buffer
  stability of integrated system (single reagent) in the inactive form: very stable with little or no leakage of the contents
Figure 4B, under 17hrs, nitroavidin and liposomes in 2ml buffer, biotin added at point X
  stability and activation of integrated system: stable and activated specifically with ligand
